Data set [1] concerns the target T1, Aβ(1-40) (Homo sapiens, UniProt P05067).
T1 construct: A 5 mg/ml stock solution of Aβ(1-40) (delivered from Bachem (CH)) was freshly prepared; purchased Bachem (CH)
The experiment in a line: Thioflavin T fluorometric assay of Cu2+-induced Aβ(1-40) aggregation. Format: biochemical. Conditions: test compound 10 μg/ml; Aβ(1-40) 100 μM; 24 hours, room temperature. As to the method: (§1) A 5 mg/ml stock solution of Aβ(1-40) (delivered from Bachem (CH)) was freshly prepared before each experiment by dissolving the lyophilised peptide in 0.01 M HCl, followed by subsequent dilution 1:1 with 0.01 M NaOH to yield a neutral pH. Aliquot of Aβ(1-40) were diluted in PBS (pH 7.4) to 100 μM and incubated at a total volume of 30 μl for 24 hours at room temperature. For co-incubation experiments, the indicated concentrations of metal ions and/or aliquot of test compounds were added. The test compounds were added to a final […] concentration of 10 μg/ml.
(§2) The amyloid formation was quantified by a thioflavin T fluorometric assay. Thioflavin binds specifically to amyloid and this introduces a shift in its emission spectrum and a fluorescent signal proportional to the amount of amyloid is formed. After incubation, Aβ(1-40) peptides were added to PBS (pH 6.0) and 3 μM thioflavin T in a final volume of 1 ml. Fluorescence was monitored at excitation 454 nm and emission 482 nm using a Fluoroscan II fluorometer (Molecular devices, UK). A time scan of fluorescence was performed and three values after the decay reached a plateau (around 5 minutes) were averaged after subtracting the background fluorescence of 3 μM thioflavin T. For co-incubation experiments, fluorescence of test compound alone was determined. Samples were run in triplicate. […]

For a further data set, the system named is PC12 cells. Nature of the data set: MTT reduction (cell redox activity) in PC12 cells exposed to Aβ(25-35). In kind it is cell-based, Rat. As for the experimental part:
Aβ(25-35) was delivered by Bachem (CH) or Sigma (USA) and dissolved in phosphate buffered saline (PBS) at pH 7.4, 2 hours prior to application.
Rat PC12 pheochromocytoma cells were grown in Dulbecco's modified Eagle's medium (DMEM) containing 1% penicillin-streptomycin, 5% fetal calf serum and 10% horse serum in humidified incubator with 5% CO2.
PC12 cells were plated on 96-wells microtiter plates in 100 μl of the appropriate medium. After 24 hours the indicated concentrations of Aβ(25-35) peptide was added alone or together with phanquinone in the designated concentrations. Incubation continued for 24 hours. Following incubation, MTT reduction was measured using a commercially available assay according to the manufacturer's (Boehringer Mannheim) instructions. Assay values obtained by vehicle alone were defined as 100%.
MTT is a substrate for intracellular and plasma membrane oxidoreductases and has been widely used to measure reductions of cell redox activity.
To test the effect of phanquinone on Aβ(25-35) induced toxicity in PC12 cells, PC12 cells were exposed to Aβ(25-35) peptide concentrations ranging from 0 to 10 μM. In the absence of phanquinone (i.e. only vehicle added) Aβ(25-35) produced a dose-dependent inhibition of MTT reduction (FIG. 1, filled-in circles).
In this study the same materials and methods as in example 1 were used, except that the PC12 cells were exposed to a fixed Aβ concentration of 1 μM, whereas the concentration of phanquinone was varied between 0 and 10 μg/ml. […] This inhibition was maintained in the presence of up to 0.1 μg phanquinone per ml.

The conditions of data set [2]: in vivo; cited from earlier work.
Data set [3] concerns the target T1, Aβ(1-40). Nature of the data set: Thioflavin T fluorometric assay of Zn2+-induced Aβ(1-40) aggregation. In kind it is biochemical. Conditions: test compound 10 μg/ml; Aβ(1-40) 100 μM; 24 hours, room temperature. As to the method: as §1, §2
Data set [4] can be described thus: Solubility in water / aqueous solutions. Format: physicochemical.
Data set [5] can be described thus: 1H NMR study of the interaction of vitamin B12 with clioquinol glucuronide. Conditions: 2.6 mM vitamin B12 and 10 mM clioquinol glucuronide, buffered water pH=6.5, 20° C. In kind it is binding. As for the experimental part:
Three different solutions were prepared and their 1H NMR spectra were recorded in a DRX 400 MHz spectrophotometer at 20° C. Solution a) contained free vitamin B12 (hydroxycobalamin) in a concentration of 2.6 mM.
In FIG. 5 the spectra of the three solutions are presented for the aromatic region (5.5-9.8 ppm). The differences are quite small but obvious in the expansion shown of FIG. 6 and FIG. 7, respectively.

T1 sequence (P05067 672-711): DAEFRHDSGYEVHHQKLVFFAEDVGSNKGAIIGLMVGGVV

On to `O=C1C(=O)c2ncccc2-c2cccnc21` [phanquinone, 4,7-phenanthroline-5,6-dione], for which, on Aβ(1-40) [1], the “reduction of Cu2+-induced aggregation of Aβ(1-40)” value is 50-60%. Further, the “redox activity of Aβ(25-35)-treated cells” value in the data set on PC12 cells (1 μM Aβ(25-35), 1 μg/ml phanquinone or more) was “normal redox activity is restored”. Moreover, the “toxic effect of Aβ” value in the data set with PC12 cells (10 μg phanquinone per ml, Aβ as high as 1 μM) is reported as “completely counteracted”. Besides, the “toxic effect of Aβ(25-35)” value in the data set with PC12 cells (10 μg phanquinone per ml, Aβ(25-35) 0 to 10 μM) is reported as “virtually abolished”; with PC12 cells (Aβ 1 μM, phanquinone 1 μg/ml and above), “completely abolished”; with PC12 cells (Aβ 1 μM, phanquinone above 0.1 μg/ml) it was “drastic reduced toxic effect”. Besides, the “inhibition of MTT reduction by Aβ(25-35)” value with PC12 cells (Aβ 1 μM, up to 0.1 μg phanquinone per ml) was “maintained”. For the same compound, the adverse side effects entry in data set [2] was “no adverse side effects have been detected”.
With “Aβ(25-35): peptide sequence between amino acid residues 25 and 35 of Aβ, delivered by Bachem or Sigma (GSNKGAIIGLM; Amyloid-beta protein 42; UniProt P05067 696-706, looked up, fragment)”, the “redox activity of cells, of the normal level” value in the data set with PC12 cells (1 μM Aβ(25-35)) is on record as 60%. Moreover, the “inhibition of MTT reduction” value in the data set on PC12 cells (Aβ(25-35) 1 μM, absence of phanquinone) is “approximately 40%”; in the data set on PC12 cells (Aβ(25-35) 10 μM, absence of phanquinone) it was “approximately 50%”; in the data set on PC12 cells (Aβ(25-35) as low as 0.01 μM) it was “significant reduction”. The “MTT reduction reduced to a maximum level” value in the data set on PC12 cells (Aβ(25-35) on or above 0.1 μM, absence of phanquinone) is given as “about 50%”.
On to `Oc1c(I)cc(Cl)c2cccnc12` [clioquinol, 5-chloro-7-iodo-8-hydroxyquinoline], for which, on Aβ(1-40) [3], the “reduction of Zn2+-induced aggregation of Aβ(1-40)” value is “more than 60%”. Moreover, the “reduction of Cu2+-induced aggregation of Aβ(1-40)” value on Aβ(1-40) [1] was “approximately 30%”. In addition, in data set [4], the solubility in water result was “cannot be dissolved in aqueous solutions”. For the same compound, the adverse side effects entry in data set [2] is recorded as “causes subacute myelo-optico-neuropathy (SMON)”.
For the compound `COC(=O)C1OC(Oc2c(I)cc(Cl)c3cccnc23)C(OC(C)=O)C(OC(C)=O)C1OC(C)=O` (centres unmarked) [clioquinol glucuronide, methyl(5-chloro-7-iodo-quinolyl-2′,3′,4′-tri-O-acetyl-glucopyranosid)uronate], the solubility in water result in data set [4] is “soluble in water”. Moreover, the “interaction with vitamin B12 (shift of 1H NMR resonances)” value in data set [5] was “interaction between clioquinol glucuronide and vitamin B12, possibly of a hydrophobic nature”.
As to `CCN(CC)C(=S)SSC(=S)N(CC)CC` [Disulfiram], in data set [2], the adverse side effects entry is “severe adverse reactions”.

Values taken from patent publication US7629354B2, “Use of phanquinone for the treatment of Alzheimer's disease” (Prana Biotechnology Limited, priority 1997, dated 2009).
